Laboratory results: ChEMBL document CHEMBL1147713, “Inhibition of trypsin and urokinase by Cbz-amino(4-guanidinophenyl)methanephosphonate aromatic ester derivatives: the influence of the ester group on their biological activity” (Bioorg Med Chem Lett, 2006)

How the values were obtained:
[1] = Selectivity for trypsin over uPA by chromogenic assay
[2] = target: Urokinase-type plasminogen activator (Homo sapiens, UniProt P00749); assay: Inhibition of human uPA by chromogenic assay using Cbz-Val-Gly-Arg-pNA as chromogenic substrate
[3] = Inhibition of bovine trypsin by chromogenic assay using Bzl-L-Arg-pNA as chromogenic substrate; design: species or system Bos taurus

SMILES	Ratio IC50 [1]	IC50 [2]	IC50 ([3]; read-out: IC50)	IC50 [3]
CC(C)(C)c1ccc(OP(=O)(Oc2ccc(C(C)(C)C)cc2)C(NC(=O)OCc2ccccc2)c2ccc(NC(=N)N)cc2)cc1 (centres undefined)	0.9	98 nM	88 nM	
CSc1ccc(OP(=O)(Oc2ccc(SC)cc2)C(NC(=O)OCc2ccccc2)c2ccc(NC(=N)N)cc2)cc1 (centres undefined)	0.33	26 nM	8.7 nM	
Cc1ccc(OP(=O)(Oc2ccc(C)cc2)C(NC(=O)OCc2ccccc2)c2ccc(NC(=N)N)cc2)cc1 (centres undefined)	0.48	370 nM	176 nM	
CCc1ccc(OP(=O)(Oc2ccc(CC)cc2)C(NC(=O)OCc2ccccc2)c2ccc(NC(=N)N)cc2)cc1 (centres undefined)	0.002	7800 nM	17 nM	
CS(=O)(=O)c1ccc(OP(=O)(Oc2ccc(S(C)(=O)=O)cc2)C(NC(=O)OCc2ccccc2)c2ccc(NC(=N)N)cc2)cc1 (centres undefined)	434	53 nM	23000 nM	
CC(C)(C)CC(C)(C)c1ccc(OP(=O)(Oc2ccc(C(C)(C)CC(C)(C)C)cc2)C(NC(=O)OCc2ccccc2)c2ccc(NC(=N)N)cc2)cc1 (centres undefined)	11.3	204 nM	2310 nM	
COc1ccc(OP(=O)(Oc2ccc(OC)cc2)C(NC(=O)OCc2ccccc2)c2ccc(NC(=N)N)cc2)cc1 (centres undefined)	0.1	2600 nM	251 nM	
N=C(N)Nc1ccc(C(NC(=O)OCc2ccccc2)P(=O)(Oc2ccc3ccccc3c2)Oc2ccc3ccccc3c2)cc1.O=C(O)C(F)(F)F (centres undefined)		455 nM		Not Active
CC(C)c1ccc(OP(=O)(Oc2ccc(C(C)C)cc2)C(NC(=O)OCc2ccccc2)c2ccc(NC(=N)N)cc2)cc1 (centres undefined)	0.29	208 nM	61 nM	
N=C(N)Nc1ccc(C(NC(=O)OCc2ccccc2)P(=O)(Oc2ccccc2)Oc2ccccc2)cc1 (centres undefined)	0.21	532 nM	112 nM	
